In patent US20250179017A1 (GUANGDONG NEWOPP BIOPHARMACEUTICALS CO., LTD., priority 2022, published 2025) one finds IC50 data, which are given here for 22 molecules.

The term IC50 denotes the concentration needed to halve the response being measured.

Structures are written as SMILES. Bounds are passed on as bounds.

The target of one assay is T1, human EP4 (EP4R) (Homo sapiens, UniProt P35408).
T1 construct: Cayman Chemical (Human EP4 Reporter Assay Kit)
The experiment in a line: EP4 antagonist assay (HEK-293 CNG membrane potential cAMP assay / 293T SEAP reporter assay, PGE2-stimulated). To be noted: EP4 antagonist activity; concentration for inhibition of signal compared to DMSO. The format is cell-based. From the text:
1. The HEK-293 CNG (Cyclic Nucleotide Gated) cell line expressing a modified CNG channel that leads to cell membrane depolarization in response to elevated intracellular cAMP levels, which can be measured using a fluorescent membrane potential dye, was engineered to express human EP2 (PTGER2) or EP4 (EP4R). The resulting cell line ACTOne™ PTGER2 or ACTOne™ EP4R as well as the fluorescent membrane potential dye were purchased from eEnzyme (Gaithersburg, MD, US) and used in this assay. Briefly, cells were plated at 1.2×10^4 cells/well in 20 μL DMEM supplemented with 2% Fetal Bovine Serum (FBS, VWR International), 1x Penicillin/Streptomycin (GenClone), 0.2 μg/mL puromycin (InvivoGen) and 50 μg/mL G418 (InvivoGen) on a 384 well plate (Greiner). The next day, cells were dye-loaded with 20 μL/well of 1x Dye-loading solution (eENZYME) following the manufacturer's instruction. After 2 hours of incubation at room temperature (RT) in the dark, a pre-read was made to obtain the background signals using CLARIOstar plate reader (BMG LABTECH, Germany) with the following filter settings: excitation=530/20 nm, emission=590/20 nm. Next, a serial dilution of compound (plus a DMSO control) were added to the plate (5 μL/well) and the reaction was incubated at RT for 15 min before adding 5 μL of PGE2 to every well for a final concentration of 5 nM. All wells were duplicated. The plate was then further incubated at RT for 30 min prior to a final read with the same machine settings. Background-subtracted signals were used to calculate IC50 values.
2. Human EP2 and EP4 Reporter Assay Kits were purchased from Cayman Chemical (Ann Arbor, MI, USA). The assay was performed following the provided User Manual. Briefly, a reverse transfection was performed by seeding 6.0×10^4 of 293T cells (ATCC) to each well of the provided Strip Plate coated with a proprietary transfection complex containing DNA constructs for expressing human EP2 or EP4 and a cAMP response element regulated secreted alkaline phosphatase (SEAP) reporter, in 200 μL DMEM supplemented with 2% FBS and incubated for 20-24 hours at 37° C. with 5% CO2. After the incubation, the culture medium was carefully removed, and the cells were replenished with 150 μL pre-warmed serum-free medium. PGE2 and test compounds were prepared together at 4x the desired final concentration, and 50 μL was added to each assigned well with the final concentration of 13 nM and 2 nM PGE2 for EP2 and EP4 assay, respectively. After 6-8 hours of incubation, 10 μL media from each well was transferred to corresponding well of a new plate, which was then sealed and incubated at 65° C. for 30 min. The plate was then cooled down to RT and 50 μL SEAP substrate was added to each well. Luminescence signal was measured using a CLARIOstar plate reader.
The IC50 value was determined as the concentration for […] inhibition of signal compared to DMSO (A: IC50≤100 nM; B: IC50 between 100 nM and 1,000 nM; C: IC50≥1,000 nM).
Background: Changes in cAMP serve as a functional read-out for many G protein-coupled receptors.

Another assay addresses T2, human EP2 (PTGER2) (Homo sapiens, UniProt P43116).
T2 construct: Cayman Chemical (Human EP2 Reporter Assay Kit)
The experiment in a line: EP2 antagonist assay (HEK-293 CNG membrane potential cAMP assay / 293T SEAP reporter assay, PGE2-stimulated). It is filed as cell-based. The following applies: EP2 antagonist activity; concentration for 50% inhibition of signal compared to DMSO. A digest of the protocol:
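HEK-293 CNG cells expressing human EP2: compound preincubated 15 min at RT, then PGE2 at 5 nM final, 30 min; membrane-potential dye fluorescence (ex 530, em 590 nm), background-subtracted, gave IC50. Alternatively, 293T cells reverse-transfected with EP2 and CRE-SEAP, compound plus 13 nM PGE2 for 6-8 h, SEAP luminescence.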

T2 sequence (P43116 whole entry): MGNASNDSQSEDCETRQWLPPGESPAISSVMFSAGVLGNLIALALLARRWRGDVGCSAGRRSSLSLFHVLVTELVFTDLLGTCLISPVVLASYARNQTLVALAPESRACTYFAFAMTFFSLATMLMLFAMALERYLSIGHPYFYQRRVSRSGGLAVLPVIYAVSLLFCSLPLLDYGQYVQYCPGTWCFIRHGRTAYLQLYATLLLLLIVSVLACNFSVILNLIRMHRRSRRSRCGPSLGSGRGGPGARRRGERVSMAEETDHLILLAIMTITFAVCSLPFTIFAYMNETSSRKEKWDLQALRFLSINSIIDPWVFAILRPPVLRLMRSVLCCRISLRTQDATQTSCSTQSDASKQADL
T1 sequence (P35408 whole entry): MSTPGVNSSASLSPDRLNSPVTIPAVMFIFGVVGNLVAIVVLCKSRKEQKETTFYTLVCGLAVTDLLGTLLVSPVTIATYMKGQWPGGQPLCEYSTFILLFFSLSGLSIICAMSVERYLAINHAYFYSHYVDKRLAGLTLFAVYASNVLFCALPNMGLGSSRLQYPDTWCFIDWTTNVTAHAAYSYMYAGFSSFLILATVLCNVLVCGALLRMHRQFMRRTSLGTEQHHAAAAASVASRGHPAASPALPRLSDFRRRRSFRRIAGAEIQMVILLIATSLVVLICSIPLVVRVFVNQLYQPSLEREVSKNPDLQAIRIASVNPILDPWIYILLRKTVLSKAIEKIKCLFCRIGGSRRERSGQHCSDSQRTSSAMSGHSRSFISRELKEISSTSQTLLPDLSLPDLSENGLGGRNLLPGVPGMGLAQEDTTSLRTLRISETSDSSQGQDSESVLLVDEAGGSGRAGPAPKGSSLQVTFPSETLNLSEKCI

`C[C@H](NC(=O)c1cc(-c2cc(F)cc(F)c2)cc2cnn(Cc3cccc(C(F)(F)F)c3)c12)c1ccc(C(=O)O)cc1` [Example 136, (S)-4-(1-(5-(3,5-difluorophenyl)-1-(3-(trifluoromethyl)benzyl)-1H-indazole-7-carboxamido)ethyl)benzoic acid]: the figures for the concentration for half-maximal inhibition (IC50) against human EP4 (EP4R) and against human EP2 (PTGER2) were at most 100 nM and below 100 nM, respectively.

`O=C(O)c1ccc(CNC(=O)c2cc(-c3ccccc3)cc3cnn(Cc4cccc(C(F)(F)F)c4)c23)cc1` [Example 137, 4-((5-phenyl-1-(3-(trifluoromethyl)benzyl)-1H-indazole-7-carboxamido)methyl)benzoic acid]: the IC50 on human EP4 (EP4R) is at most 100 nM; against human EP2 (PTGER2), below 100 nM.

In the case of `O=C(O)c1ccc(CNC(=O)c2cc(-c3ccccc3)cc3ccn(Cc4ccc5ccccc5n4)c23)cc1` [Example 141, 4-((5-phenyl-1-(quinolin-2-ylmethyl)-1H-indole-7-carboxamido)methyl)benzoic acid], the IC50 at human EP4 (EP4R) is at most 100 nM; at human EP2 (PTGER2), below 100 nM.

Consider `O=C(O)c1ccc(CNC(=O)c2cc(-c3ccccc3)cc3ccn(Cc4ccc(-c5ccccc5)cc4)c23)cc1` [Example 147, 4-((1-([1,1′-biphenyl]-4-ylmethyl)-5-phenyl-1H-indole-7-carboxamido)methyl)benzoic acid], for which the IC50 at human EP4 (EP4R) was at most 100 nM; on human EP2 (PTGER2), below 100 nM.

As to `O=C(O)c1ccc(CNC(=O)c2cc(-c3cc(F)cc(F)c3)cc3ccn(Cc4ccc(-c5ccccc5)cc4)c23)cc1` [Example 149, 4-((1-([1,1′-biphenyl]-4-ylmethyl)-5-(3,5-difluorophenyl)-1H-indole-7-carboxamido)methyl)benzoic acid], the results for the half-inhibitory concentration (IC50) on human EP4 (EP4R) and against human EP2 (PTGER2) were at most 100 nM and below 100 nM, respectively.

As for `C[C@H](NC(=O)c1cc(-c2ccccc2)cc2ccn(Cc3ccc(-c4ccccc4)cc3)c12)c1ccc(C(=O)O)cc1` [Example 150, (S)-4-(1-(1-([1,1′-biphenyl]-4-ylmethyl)-5-phenyl-1H-indole-7-carboxamido)ethyl)benzoic acid], the 50% inhibitory concentration (IC50) is at most 100 nM against human EP4 (EP4R) and below 100 nM on human EP2 (PTGER2).

Regarding `C[C@H](NC(=O)c1cc(-c2ccc(F)cc2)cc2ccn(Cc3ccc(-c4ccccc4)cc3)c12)c1ccc(C(=O)O)cc1` [Example 151, (S)-4-(1-(1-([1,1′-biphenyl]-4-ylmethyl)-5-(4-fluorophenyl)-1H-indole-7-carboxamido)ethyl)benzoic acid], the IC50 was at most 100 nM at human EP4 (EP4R) and below 100 nM on human EP2 (PTGER2).

For the molecule `C[C@H](NC(=O)c1cc(-c2cc(F)cc(F)c2)cc2ccn(Cc3ccc(-c4ccccc4)cc3)c12)c1ccc(C(=O)O)cc1` [Example 152, (S)-4-(1-(1-([1,1′-biphenyl]-4-ylmethyl)-5-(3,5-difluorophenyl)-1H-indole-7-carboxamido)ethyl)benzoic acid], the IC50 against human EP4 (EP4R) is at most 100 nM; at human EP2 (PTGER2) it was below 100 nM.

Regarding `O=C(O)c1ccc(CNC(=O)c2ccc(Nc3ccccc3)c3ccn(Cc4ccc(-c5ccccc5)cc4)c23)cc1` [Example 154, 4-((1-([1,1′-biphenyl]-4-ylmethyl)-4-(phenylamino)-1H-indole-7-carboxamido)methyl) benzoic acid], the IC50 is at most 100 nM on human EP4 (EP4R) and below 100 nM at human EP2 (PTGER2).

As for `O=C(O)c1ccc(CNC(=O)c2ccc(Nc3ccccc3)c3ccn(Cc4ccc5ccccc5c4)c23)cc1` [Example 156, 4-((1-(naphthalen-2-ylmethyl)-4-(phenylamino)-1H-indole-7-carboxamido)methyl)benzoic acid], the results for the IC50 against human EP4 (EP4R) and against human EP2 (PTGER2) were at most 100 nM and below 100 nM, respectively.

Take `O=C(O)c1ccc(CNC(=O)c2cc(-c3ccccc3)cc3cnn(Cc4ccc5ccccc5c4)c23)cc1` [Example 165, 4-((1-(naphthalen-2-ylmethyl)-5-phenyl-1H-indazole-7-carboxamido)methyl)benzoic acid]: the IC50 at human EP4 (EP4R) is at most 100 nM; against human EP2 (PTGER2) it was below 100 nM.

Turning to `O=C(O)c1ccc(CNC(=O)c2cc(-c3ccc(F)cc3)cc3cnn(Cc4ccc5ccccc5c4)c23)cc1` [Example 166, 4-((5-(4-fluorophenyl)-1-(naphthalen-2-ylmethyl)-1H-indazole-7-carboxamido)methyl)benzoic acid], the IC50 is at most 100 nM at human EP4 (EP4R) and below 100 nM against human EP2 (PTGER2).

Take `C[C@H](NC(=O)c1cc(-c2ccc(F)cc2)cc2cnn(Cc3ccc4ccccc4c3)c12)c1ccc(C(=O)O)cc1` [Example 168, (S)-4-(1-(5-(4-fluorophenyl)-1-(naphthalen-2-ylmethyl)-1H-indazole-7-carboxamido)ethyl)benzoic acid]: the values for the IC50 on human EP4 (EP4R) and on human EP2 (PTGER2) were at most 100 nM and below 100 nM, respectively.

In the case of `C[C@H](NC(=O)c1cc(-c2cc(F)cc(F)c2)cc2cnn(Cc3ccc4ccccc4c3)c12)c1ccc(C(=O)O)cc1` [Example 169, (S)-4-(1-(5-(3,5-difluorophenyl)-1-(naphthalen-2-ylmethyl)-1H-indazole-7-carboxamido)ethyl)benzoic acid], the IC50 at human EP4 (EP4R) was at most 100 nM; against human EP2 (PTGER2), below 100 nM.

Regarding `O=C(O)c1ccc(CNC(=O)c2cc(-c3ccc(F)cc3)cc3nnn(Cc4ccc(C(F)(F)F)cc4)c23)cc1` [Example 175], the 50% inhibitory concentration (IC50) at human EP4 (EP4R) is at most 100 nM; at human EP2 (PTGER2) it was below 100 nM.

`O=C(O)c1ccc(CNC(=O)c2cc(-c3cc(F)cc(F)c3)cc3nnn(Cc4ccc(C(F)(F)F)cc4)c23)cc1` [Example 176, ((5-(3,5-difluorophenyl)-1-(4-(trifluoromethyl)benzyl)-1H-benzo[d][1,2,3]triazole-7-carboxamido)methyl)benzoic acid]: the half-inhibitory concentration (IC50) on human EP4 (EP4R) was at most 100 nM; against human EP2 (PTGER2), below 100 nM.

For the molecule `C[C@H](NC(=O)c1cc(-c2ccc(F)cc2)cc2nnn(Cc3ccc(C(F)(F)F)cc3)c12)c1ccc(C(=O)O)cc1` [Example 180, (S)-4-(1-(5-(4-fluorophenyl)-1-(4-(trifluoromethyl)benzyl)-1H-benzo[d][1,2,3]triazole-7-carboxamido)ethyl)benzoic acid], the IC50 is at most 100 nM against human EP4 (EP4R) and below 100 nM against human EP2 (PTGER2).

For the molecule `O=C(O)c1ccc(CNC(=O)c2cc(-c3ccccc3)cc3cnn(Cc4ccc(-c5ccc(F)cc5)cc4)c23)cc1` [Example 184, 4-((1-((4′-fluoro-[1,1′-biphenyl]-4-yl)methyl)-5-phenyl-1H-indazole-7-carboxamido)methyl)benzoic acid], the IC50 against human EP4 (EP4R) is at most 100 nM; against human EP2 (PTGER2) it was below 100 nM.

As for `O=C(O)c1ccc(CNC(=O)c2cc(-c3ccc(F)c(F)c3)cc3ccn(Cc4ccc(-c5ccccc5)cc4)c23)cc1` [Example 188, 4-((1-([1,1′-biphenyl]-4-ylmethyl)-5-(3,4-difluorophenyl)-1H-indole-7-carboxamido)methyl)benzoic acid], the IC50 on human EP4 (EP4R) was at most 100 nM; against human EP2 (PTGER2), below 100 nM.

With `C[C@H](NC(=O)c1cc(-c2ccccc2)cc2nnn(Cc3ccc4ccccc4c3)c12)c1ccc(C(=O)O)cc1` [Example 189], the IC50 against human EP4 (EP4R) was at most 100 nM; against human EP2 (PTGER2), below 100 nM.

As for `O=C(O)c1ccc(CNC(=O)c2cc(-c3ccccc3)cc3cnn(Cc4ccc(-c5ccccc5)cc4)c23)cc1` [Example 190, 4-((1-([1,1′-biphenyl]-4-ylmethyl)-5-phenyl-1H-indazole-7-carboxamido)methyl)benzoic acid], the results for the IC50 on human EP4 (EP4R) and against human EP2 (PTGER2) were at most 100 nM and below 100 nM, respectively.

In the case of `O=C(O)c1ccc(CNC(=O)c2cc(-c3ccc(F)cc3)cc3cnn(Cc4ccc(-c5ccccc5)cc4)c23)cc1` [Example 191, 4-((1-([1,1′-biphenyl]-4-ylmethyl)-5-(4-fluorophenyl)-1H-indazole-7-carboxamido)methyl)benzoic acid], the IC50 was at most 100 nM against human EP4 (EP4R) and below 100 nM at human EP2 (PTGER2).
